US20250129102A1, “CRYSTAL FORM OF PYRIMIDINE HETEROCYCLIC COMPOUND AND PREPARATION METHOD THEREFOR” (D3 Bio (Wuxi) Co., Ltd., priority 2021, published 2025)

Columns and labels:
Assay type in all cases: in vitro ADME
[1] = Metabolic stability in hepatocytes, SD rats; settings: rat, cryopreserved hepatocytes
Method: (§1) Metabolic stabilities of assay compound in hepatocytes of CD-1 mice, SD rats, beagle dogs, cynomolgus monkeys, and human were assayed, respectively.
(§2) Several 96-well sample precipitation plates were prepared and named T0, T15, T30, T60, T90, T120, T0-MC, T120-MC and blank substrates, respectively. The recovery medium and incubation medium were taken out in advance and placed in a 37° C. water bath for pre-heating. Cryopreserved hepatocytes were removed from the liquid nitrogen tank and immediately immersed in a 37° C. water bath (approximately 90 seconds). After the cryopreserved hepatocytes had thawed and loosened, they were poured into a centrifuge tube containing 40 mL of recovery medium, and the tube was gently inverted to allow the cells to be resuspended in the recovery medium. The cells were centrifuged at 100×g at room temperature for 5 min, and the supernatant was removed. The hepatocytes were resuspended in an appropriate volume of incubation medium, and the cell viability was calculated by Trypan Blue staining method. 198 μL of hepatocyte suspension (0.51×10^6 cells/mL) was added to the preheated incubation plate. For the culture medium control group, 198 μL of hepatocyte-free incubation medium was added to T0-MC and T120-MC incubation plate. All incubation plates were pre-incubated in a 37° C. incubator for 10 minutes. Then 2 μL of working solutions of the assay sample and the control compound were added, respectively, and the mixture was mixed well. The incubation plate was immediately put into the shaker in the incubator, and the reaction was initiated while starting the timer. For each time point of each compound, 2 duplicate samples were prepared. The incubation conditions were 37° C., saturated humidity, and 5% CO2. […] All samples were mixed well and analyzed by LC/MS/MS.

[2] = Metabolic stability in hepatocytes, cynomolgus monkeys; settings: cynomolgus monkey, cryopreserved hepatocytes
Method: as §1, §2

[3] = In vitro stability in liver microsomes, human; settings: 0.5 mg/mL
Method: Metabolic stabilities of the assay compound in liver microsomes of CD-1 mice, SD rats, beagle dogs, cynomolgus monkeys, and human were assayed, respectively.
Two 96-well incubation plates were prepared and named T60 incubation plate and NCF60 incubation plate, respectively. 445 μL of microsomal working solutions (liver microsomal protein concentration of 0.56 mg/mL) were added to the T60 incubation plate and the NCF60 incubation plate, respectively, and then the above incubation plates were pre-incubated in a 37° C. water bath for about 10 minutes.
After the pre-incubation, 5 μL of working solutions of the assay sample or the control compound were added to the T60 incubation plate and the NCF60 incubation plate, respectively, and the mixture was mixed well. 50 μL of potassium phosphate buffer was added to each well of the NCF60 incubation plate to initiate the reaction. 180 μL of stop solution (200 ng/mL tolbutamide and 200 ng/mL labetalol in acetonitrile) and 6 uL of NADPH regeneration system working solution were added to the T0 stop plate, and 54 μL of sample was transferred from T60 incubation plate to T0 stop plate (generation of T0 sample). The reaction was initiated by adding 44 μL of NADPH regeneration system working solution to each well of the T60 incubation plate. Only 54 μL of microsome working solution, 6 uL of NADPH regeneration system working solution and 180 μL of stop solution were added to the Blank plate. Therefore, in samples of the assay compound or the control compound, the final reaction concentration of compound, testosterone, diclofenac and propafenone was 1 μM, the concentration of liver microsomes was 0.5 mg/mL, and the final reaction concentrations of DMSO and acetonitrile in the reaction system were 0.01% (v/v) and 0.99% (v/v), respectively. […] All samples were injected and analyzed by liquid chromatography-tandem mass spectrometry.

[4] = Stability in whole blood, beagle dogs; settings: 5 μM, 37° C.
Method: Stabilities of the assay compound in whole blood of CD-1 mice, SD rats, beagle dogs and cynomolgus monkeys were assayed, respectively. On the day of the assay or the day before the assay, fresh whole blood from CD-1 mice, SD rats, beagle dogs, and cynomolgus monkeys was collected using anticoagulant EDTA-K2. Prior to the start of the assay, the whole blood was mixed with PBS in 1:1 (v: v) and the mixture was preheated in a 37° C. water bath for 10 to 20 minutes. 96-well incubation plates were prepared and named T0, T30, T60, […], respectively. In the corresponding incubation plates, including T0, T30, T60 and […] incubation plates, 2 μL of working solutions of the compound or the control compound were mixed with 98 μL of blank whole blood of mice, rats, canines, monkeys and human in duplicate. All samples were incubated in a 37° C. water bath. The final incubation concentration of the compound was 5 μM and the final incubation concentration of the control compound was 2 μM. At the end of incubation for each time point, the corresponding incubation plate was removed and 100 μL of ultrapure water was immediately added to the corresponding sample wells, and mixed well. 800 μL of a solution of 200 ng/mL tolbutamide and labetalol in acetonitrile was added to precipitate the protein. […] 150 μL of supernatant was taken out and analyzed by LC/MS/MS.

[5] = Protein binding rate in plasma by equilibrium dialysis, cynomolgus monkeys; settings: 2 μM, equilibrium dialysis 4 hours
Method: Protein binding rate of the assay compound in plasma of CD-1 mice, SD rats, beagle dogs, cynomolgus monkeys and human was determined by equilibrium dialysis. Plasma samples with a compound concentration of 2 μM were prepared using plasma of the above five species, placed in a 96-well equilibrium dialysis device, and dialyzed with phosphate buffer solution at 37±1° C. for 4 hours. Warfarin was used as the control compound in this assay. The concentrations of the assay compound in plasma and dialysis buffer were determined by LC-MS/MS method.

C=C(F)C(=O)N1CCN(c2nc(OC[C@@]34CCCN3C[C@H](F)C4)nc3c2CO[C@H](c2c(F)c(N)cc(C)c2C(F)(F)F)C3)C[C@@H]1CC#N [Compound of formula (I)]
half-life at 1 μM [1]: 20.6 min | hepatocyte CLint at 1 μM ([1]; read-out: CLint(hep)): 67.4 µL/min/1e6 cells | CLint scaled at 1 μM ([1]; read-out: CLint(liver)): 315 mL/min/kg | half-life at 1 μM [2]: 27 min | hepatocyte CLint at 1 μM ([2]; read-out: CLint(hep)): 51.3 µL/min/1e6 cells | CLint scaled at 1 μM ([2]; read-out: CLint(liver)): 185 mL/min/kg | CLint scaled at 1 μM [3]: 61.1 mL/min/kg | half-life at 1 μM [3]: 20.4 min | microsomal CLint at 1 μM ([3]; read-out: CLint(hep)): 67.9 µL/min/mg | Detection of assay compound content within 240 min [4]: 102% | Protein unbound rate (%) [5]: 7.8%
